In patent publication US12390446B2 (RESEARCH TRIANGLE INSTITUTE, priority 2017, dated 2025):
Like-named read-outs stand apart in the source and are kept apart here.

Tests used:
[1] = biological target: T1, NPFF2 receptor (human NPFFR2 in CHO-RD-HGA16 cells) (Homo sapiens, UniProt Q9Y5X5); assay: Calcium mobilization functional Ke assay, NPFF2; format: cell-based; details: for NPFF2 antagonist activity: at 10 μM; for Kb: read-out: NPFF2 Ke
T1 construct: expressed in transfected cells

[2] = biological target: T2, NPFF1 receptor (human NPFFR1 in CHO-RD-HGA16 cells) (Homo sapiens, UniProt Q9GZQ6); assay: Calcium mobilization functional Ke assay, NPFF1; format: cell-based; details: for NPFF1 antagonist activity: at 10 μM; for Kb: read-out: NPFF1 Ke; for type of antagonism in curve-shift assays: standard incubation, competitive profile with longer incubations
T2 construct: expressed in transfected cells

[3] = Table 1, mean ± SEM, apparent dissociation constant vs NPFF
[4] = Table 1, footnote c: pre-incubation of antagonist and test compound 45 min or 1 hr
[5] = Table 2, 4-(4-methylthio)benzylamino series, mean ± SEM
[6] = Table 2, footnote c: pre-incubation 1 hr

T2 sequence (Q9GZQ6 whole entry): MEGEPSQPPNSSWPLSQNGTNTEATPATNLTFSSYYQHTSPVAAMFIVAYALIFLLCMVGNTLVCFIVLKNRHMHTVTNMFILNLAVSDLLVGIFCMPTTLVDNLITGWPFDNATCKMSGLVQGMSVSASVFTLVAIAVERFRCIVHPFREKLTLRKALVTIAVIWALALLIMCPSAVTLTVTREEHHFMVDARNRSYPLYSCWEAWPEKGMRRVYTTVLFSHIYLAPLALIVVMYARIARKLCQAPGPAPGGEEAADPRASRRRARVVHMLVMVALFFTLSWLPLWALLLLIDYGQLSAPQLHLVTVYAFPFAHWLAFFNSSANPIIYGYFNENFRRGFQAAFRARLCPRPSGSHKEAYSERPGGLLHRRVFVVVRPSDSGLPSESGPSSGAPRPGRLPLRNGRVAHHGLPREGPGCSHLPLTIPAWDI
T1 sequence (Q9Y5X5 whole entry): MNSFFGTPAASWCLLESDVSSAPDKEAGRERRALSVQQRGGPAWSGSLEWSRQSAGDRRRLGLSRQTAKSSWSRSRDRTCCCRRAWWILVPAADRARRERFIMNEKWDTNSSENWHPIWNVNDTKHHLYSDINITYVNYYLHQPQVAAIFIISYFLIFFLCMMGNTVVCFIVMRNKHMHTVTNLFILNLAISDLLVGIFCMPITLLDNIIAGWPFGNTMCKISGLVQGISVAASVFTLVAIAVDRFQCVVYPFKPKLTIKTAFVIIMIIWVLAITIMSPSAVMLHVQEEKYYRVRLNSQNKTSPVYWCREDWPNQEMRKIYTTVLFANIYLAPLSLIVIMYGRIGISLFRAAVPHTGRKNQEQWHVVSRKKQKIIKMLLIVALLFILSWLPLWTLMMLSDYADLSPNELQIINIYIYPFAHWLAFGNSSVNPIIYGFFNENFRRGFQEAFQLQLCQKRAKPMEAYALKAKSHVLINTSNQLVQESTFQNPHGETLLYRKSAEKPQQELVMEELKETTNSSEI

With CCNC(=O)[C@@H]1C[C@H](NCc2ccc(SC)cc2)CN1Cc1ccccc1Cl [Compound 1] the “NPFF2 Ke” value ([1]; calcium mobilization assay) was 7,250 nM and the “NPFF1 Ke” value ([2]; calcium mobilization assay) was 1,620 nM.

With CNC(=O)[C@@H]1C[C@H](NCc2ccc(OC)cc2)CN1Cc1ccccc1Cl [Compound 10, (2S,4S)-1-[(2-Chlorophenyl)methyl]-4-{[(4-methoxyphenyl)methyl]amino}-N-methylpyrrolidine-2-carboxamide] the “NPFF2 antagonist activity” value [1] was “inactive” and the “NPFF1 antagonist activity” value [2] was “inactive”.

In the case of CCNC(=O)[C@@H]1C[C@H](NCc2ccc(OC)cc2)CN1Cc1ccccc1Cl [Compound 11, (2S,4S)-1-[(2-Chlorophenyl)methyl]-N-ethyl-4-{[(4-methoxyphenyl)methyl]amino}pyrrolidine-2-carboxamide], the Kb [1, 3] is reported as over 10000 nM, the “NPFF2 antagonist activity” value [1] is reported as “inactive” and the Kb [2, 3] is reported as over 10000 nM. For the same molecule, the “NPFF1 antagonist activity” value [2] was “inactive” and the Kb ([2]; calcium mobilization assay) was over 10000 nM.

In the case of CCCNC(=O)[C@@H]1C[C@H](NCc2ccc(OC)cc2)CN1Cc1ccccc1Cl [Compound 12, (2S,4S)-1-[(2-Chlorophenyl)methyl]-4-{[(4-methoxyphenyl)methyl]amino}-N-propylpyrrolidine-2-carboxamide], the Kb [1, 3] is reported as 9080 nM, the Kb [2, 3] is reported as 2600 nM and the Kb ([2]; calcium mobilization assay) is reported as 9080 nM.

Molecule CCCCNC(=O)[C@@H]1C[C@H](NCc2ccc(OC)cc2)CN1Cc1ccccc1Cl [Compound 13, (2S,4S)—N-Butyl-1-[(2-chlorophenyl)methyl]-4-{[(4-methoxyphenyl)methyl]amino}pyrrolidine-2-carboxamide] has a Kb [2, 3] of 1240 nM.

Molecule CCC(C)NC(=O)[C@@H]1C[C@H](NCc2ccc(OC)cc2)CN1Cc1ccccc1Cl (stereo partly drawn) [Compound 14, (2S,4S)—N-(Butan-2-yl)-1-[(2-chlorophenyl)methyl]-4-{[(4-methoxyphenyl)methyl]amino}pyrrolidine-2-carboxamide] has a Kb [1, 3] of 3680 nM and a Kb [2, 3] of 1500 nM.

Molecule COc1ccc(CN[C@H]2C[C@@H](C(=O)NC(C)(C)C)N(Cc3ccccc3Cl)C2)cc1 [Compound 15, (2S,4S)—N-tert-Butyl-1-[(2-chlorophenyl)methyl]-4-{[(4-methoxyphenyl)methyl]amino}pyrrolidine-2-carboxamide] has a Kb [1, 4] of 1260 nM and a Kb [2, 3] of 1880 nM.

COc1ccc(CN[C@H]2C[C@@H](C(=O)NCCC(C)C)N(Cc3ccccc3Cl)C2)cc1 [Compound 17, (2S,4S)-1-[(2-Chlorophenyl)methyl]-4-{[(4-methoxyphenyl)methyl]amino}-N-(3-methylbutyl)pyrrolidine-2-carboxamide] was tested, and the Kb [1, 4] was 1540 nM and the Kb [2, 3] was 1320 nM.

CCCCCCNC(=O)[C@@H]1C[C@H](NCc2ccc(OC)cc2)CN1Cc1ccccc1Cl [Compound 18, (2S,4S)-1-[(2-Chlorophenyl)methyl]-4-{[(4-methoxyphenyl)methyl]amino}-N-hexylpyrrolidine-2-carboxamide] gave a Kb [1, 4] of 1490 nM and a Kb [2, 3] of 820 ± 80 nM.

CCCCCCCCCCNC(=O)[C@@H]1C[C@H](NCc2ccc(OC)cc2)CN1Cc1ccccc1Cl [Compound 19, (2S,4S)-1-[(2-Chlorophenyl)methyl]-N-decyl-4-{[(4-methoxyphenyl)methyl]amino}pyrrolidine-2-carboxamide] gave a Kb [2, 4] of over 10000 nM.

COc1ccc(CN[C@H]2C[C@@H](C(=O)NCCN3CCOCC3)N(Cc3ccccc3Cl)C2)cc1 [Compound 20, (2S,4S)-1-[(2-Chlorophenyl)methyl]-4-{[(4-methoxyphenyl)methyl]amino}-N-[2-(morpholin-4-yl)ethyl]pyrrolidine-2-carboxamide] gave a Kb [2, 3] of 1960 nM.

COc1ccc(CN[C@H]2C[C@@H](C(=O)NCCC3CCCCC3)N(Cc3ccccc3Cl)C2)cc1 [Compound 21, (2S,4S)-1-[(2-Chlorophenyl)methyl]-N-(2-cyclohexylethyl)-4-{[(4-methoxyphenyl)methyl]amino}pyrrolidine-2-carboxamide] gave a Kb [1, 4] of 1220 nM and a Kb [2, 3] of 1120 nM.

COc1ccc(CN[C@H]2C[C@@H](C(=O)NCc3ccccc3)N(Cc3ccccc3Cl)C2)cc1 [Compound 23, (2S,4S)—N-Benzyl-1-[(2-chlorophenyl)methyl]-4-{[(4-methoxyphenyl)methyl]amino}pyrrolidine-2-carboxamide] was tested, and the Kb [1, 4] was 2010 nM, the Kb [2, 4] was 780 ± 80 nM and the “type of antagonism in curve-shift assays” value [2] was “insurmountable antagonism”.

Molecule COc1ccc(CN[C@H]2C[C@@H](C(=O)NCCCc3ccccc3)N(Cc3ccccc3Cl)C2)cc1 [Compound 25, (2S,4S)-1-[(2-Chlorophenyl)methyl]-4-{[(4-methoxyphenyl)methyl]amino}-N-(3-phenylpropyl)pyrrolidine-2-carboxamide] has a Kb [1, 4] of 2600 nM and a Kb [2] of over 10000 nM.

For COc1ccc(CN[C@H]2C[C@@H](C(=O)NCCc3ccc(F)cc3)N(Cc3ccccc3Cl)C2)cc1 [Compound 35, (2S,4S)-1-[(2-Chlorophenyl)methyl]-N-[2-(4-fluorophenyl)ethyl]-4-{[(4-methoxyphenyl)methyl]amino}pyrrolidine-2-carboxamide], the Kb [1, 3] was 9880 nM, the Kb [2, 3] was 1130 nM and the “NPFF1 Ke” value ([2]; calcium mobilization assay) was 1,130 nM.

In the case of COc1ccc(CN[C@H]2C[C@@H](C(=O)NCCc3ccc(C(F)(F)F)cc3)N(Cc3ccccc3Cl)C2)cc1 [Compound 36, (2S,4S)-1-[(2-Chlorophenyl)methyl]-4-{[(4-methoxyphenyl)methyl]amino}-N-{2-[4-(trifluoromethyl)phenyl]ethyl}pyrrolidine-2-carboxamide], the Kb [2, 3] is reported as 1670 nM and the “NPFF1 Ke” value ([2]; calcium mobilization assay) is reported as 1,670 nM.

For COc1ccc(CN[C@H]2C[C@@H](C(=O)NCCc3ccncc3)N(Cc3ccccc3Cl)C2)cc1 [Compound 37, (2S,4S)-1-[(2-Chlorophenyl)methyl]-4-{[(4-methoxyphenyl)methyl]amino}-N-[2-(pyridin-4-yl)ethyl]pyrrolidine-2-carboxamide], the Kb [2, 3] was 1820 nM and the “NPFF1 Ke” value ([2]; calcium mobilization assay) was 1,820 nM.

Molecule COc1ccc(CN[C@H]2C[C@@H](C(=O)NCCc3ccc(S(C)(=O)=O)cc3)N(Cc3ccccc3Cl)C2)cc1 [Compound 39, (2S,4S)-1-[(2-Chlorophenyl)methyl]-N-[2-(4-methanesulfonylphenyl)ethyl]-4-{[(4-methoxyphenyl)methyl]amino}pyrrolidine-2-carboxamide] has a Kb [2, 3] of 1880 nM.

CCN(CC)C(=O)[C@@H]1C[C@H](NCc2ccc(OC)cc2)CN1Cc1ccccc1Cl [Compound 40, (2S,4S)-1-[(2-Chlorophenyl)methyl]-N,N-diethyl-4-{[(4-methoxyphenyl)methyl]amino}pyrrolidine-2-carboxamide] gave a Kb [1, 3] of 4930 nM and a Kb [2, 3] of 2900 nM.

With CCCN(CCC)C(=O)[C@@H]1C[C@H](NCc2ccc(OC)cc2)CN1Cc1ccccc1Cl [Compound 41, (2S,4S)-1-[(2-Chlorophenyl)methyl]-4-{[(4-methoxyphenyl)methyl]amino}-N,N-dipropylpyrrolidine-2-carboxamide] the Kb [1, 4] was 1730 nM, the Kb [2, 4] was 880 ± 120 nM and the Kb ([2]; calcium mobilization assay) was 880 nM. For the same molecule, the “type of antagonism in curve-shift assays” value [2] was “insurmountable antagonism”.

With COc1ccc(CN[C@H]2C[C@@H](C(=O)N3CCN(c4ccccc4)CC3)N(Cc3ccccc3Cl)C2)cc1 [Compound 42, (3S,5S)-1-[(2-Chlorophenyl)methyl]-N-[(4-methoxyphenyl)methyl]-5-(4-phenylpiperazine-1-carbonyl)pyrrolidin-3-amine] the Kb [1, 4] was 2080 nM, the Kb [2, 4] was 1330 nM and the “NPFF1 Ke” value ([2]; calcium mobilization assay) was 1,330 nM. The “type of antagonism in curve-shift assays” value [2] was “insurmountable antagonism”.

CCNC(=O)[C@@H]1C[C@H](NCc2ccc(SC)cc2)CN1Cc1ccccc1Cl [Compound 43, (2S,4S)-1-[(2-Chlorophenyl)methyl]-N-ethyl-4-{[(4-(methylthio)phenyl)methyl]amino}pyrrolidine-2-carboxamide] was tested, and the Kb [1, 5] was 5600 nM and the Kb [2, 5] was 1080 nM.

In the case of CCCCCNC(=O)[C@@H]1C[C@H](NCc2ccc(SC)cc2)CN1Cc1ccccc1Cl [Compound 44, (2S,4S)-1-[(2-Chlorophenyl)methyl]-4-{[(4-(methylthio)phenyl)methyl]amino}-N-pentylpyrrolidine-2-carboxamide], the Kb [1, 6] is reported as 970 ± 30 nM, the Kb [2, 5] is reported as 360 ± 50 nM and the Kb ([2]; calcium mobilization assay) is reported as 360 nM.

CSc1ccc(CN[C@H]2C[C@@H](C(=O)NCCc3ccccc3)N(Cc3ccccc3Cl)C2)cc1 [Compound 45, (2S,4S)-1-[(2-Chlorophenyl)methyl]-4-{[(4-(methylthio)phenyl)methyl]amino}-N-(2-phenylethyl)pyrrolidine-2-carboxamide] was tested, and the Kb [1, 5] was 3700 nM, the Kb [2, 5] was 530 ± 80 nM and the Kb ([2]; calcium mobilization assay) was 530 nM.

Work on CSc1ccc(CN[C@H]2C[C@@H](C(=O)NCCc3ccc(F)c(F)c3)N(Cc3ccccc3Cl)C2)cc1 [Compound 48, (2S,4S)-1-[(2-Chlorophenyl)methyl]-N-[2-(3,4-difluorophenyl)ethyl]-4-{[(4-(methylthio)phenyl)methyl]amino}pyrrolidine-2-carboxamide] yielded a Kb [1, 6] of 880 ± 160 nM, a Kb [2, 5] of 470 ± 60 nM and a Kb ([2]; calcium mobilization assay) of 470 nM.

CCCN[C@H]1C[C@@H](C(=O)NCCc2ccc([N+](=O)[O-])cc2)N(Cc2ccccc2Cl)C1 [Compound 52] was tested, and the Kb ([1]; Table 3, mean ± SEM) was over 10000 nM and the Kb ([2]; Table 3, mean ± SEM) was 5160 nM.

CCCCN[C@H]1C[C@@H](C(=O)NCCc2ccc([N+](=O)[O-])cc2)N(Cc2ccccc2Cl)C1 [Compound 53, (2S,4S)-4-(Butylamino)-1-[(2-chlorophenyl)methyl]-N-[2-(4-nitrophenyl)ethyl]pyrrolidine-2-carboxamide] showed a Kb ([1]; Table 3, mean ± SEM) of over 10000 nM and a Kb ([2]; Table 3, mean ± SEM) of 6120 nM.

Work on CCCCCN[C@H]1C[C@@H](C(=O)NCCc2ccc([N+](=O)[O-])cc2)N(Cc2ccccc2Cl)C1 [Compound 54, (2S,4S)-1-[(2-Chlorophenyl)methyl]-N-[2-(4-nitrophenyl)ethyl]-4-(pentylamino) pyrrolidine-2-carboxamide] yielded a Kb ([1]; Table 3, mean ± SEM) of over 10000 nM and a Kb ([2]; Table 3, mean ± SEM) of 2480 nM.
